In ChEMBL document CHEMBL3507680, “University of Dundee, Gates Library screen for HepG2 cell viability”:

Test: Human HepG2 cell viability assay in 384 well format
Assay type: toxicity, cell-based
Design: dose 125 nL, time 70.5 hour; concentration not given beside the values
Conditions: HepG2 cells, read-out: Inhibition

| SMILES | cytotoxicity at 70.5 h [%] |
| --- | --- |
| CCc1nsc(N2CCN(CC(=O)NCc3cccnc3)CC2)n1 | -5.18 |
| CC(=O)N1CC[C@H]2OCC[C@@H](C(=O)NCc3ccco3)[C@@H]2C1 | 26.4 |
| N#CCSCCCN1CCN(C(=O)c2ccccc2F)CC1 | -12.3 |
| O=C1CC2(CCCNC2)C(=O)N1Cc1ccc(Cl)cc1 (configuration not stated) | -15.9 |
| O=C1N(CC2CC2)C(c2c[nH]nc2-c2cccnc2)NC12CCCC2 (configuration not stated) | -12.7 |
| CC1CCN(C(=O)c2cnc(CC3CCCN(C)C3)cn2)CC1 (configuration not stated) | -9.3 |
| c1ccc(-c2noc(CNC3CCCN(c4cccnn4)C3)n2)nc1 (configuration not stated) | 0.881 |
| Cc1ccsc1C(=O)Nc1cc(Br)c(=O)n(C)c1 | -8.88 |
| CCc1nsc(N2CCN(C(=O)COc3ccccc3)CC2)n1 | -6.06 |
| Cc1cc(O)nc(C2CCCNC2)n1 (configuration not stated) | -3.99 |
| CC(c1cccc(-c2cn(Cc3ccoc3)nn2)c1)N(C)C (configuration not stated) | -2.66 |
| CC(C)(O)CCc1ccc(C(=O)NCCC2CCCOC2)cc1 (configuration not stated) | -0.926 |
| Cn1cc(C2CCCN2C(=O)CCCOc2ccccc2F)cn1 (configuration not stated) | -2.53 |
| Cc1ccnn1CCC(=O)N(Cc1ccsc1)CC(C)C | -2.24 |
| O=C(CC1CC1)N1CCC2(COCc3cnc(N4CCOCC4)nc32)C1 (configuration not stated) | -6.88 |
| COc1cccc2c3c(c(=O)n(C)c12)CCC(C)(C)O3 | -10.4 |
| COC[C@H]1CC[C@H]2[C@H](CCN2S(=O)(=O)c2ccccc2)O1 | 5.05 |
| Fc1ccc(CN2CCC3(CC2)CCN(Cc2nccs2)CC3)cc1 | 1.45 |
| Cc1csc(N2CCCN(C(=O)C3(C#N)CCCC3)CC2)n1 | -8.33 |
| COCCN1CCO[C@@H]2CN(Cc3ccccn3)C[C@@H]2C1 | 2.26 |
| COc1cccc(-c2cc(NCc3nccn3C)n(C)n2)c1 | -6.65 |
| O=C(NCCc1nncn1C1CC1)C1(c2ccccc2)CCC1 | -5.9 |
| Cc1cnn(CC2CCCN2Cc2nccn2CC(F)(F)F)c1 (configuration not stated) | 0.0433 |

| SMILES | cytotoxicity at 70.5 h [%] |
| --- | --- |
| Cc1noc(C)c1CN1C(=O)[C@H]2CC[C@@H]1CN(Cc1cccc(O)c1)C2 | 5.47 |
| CCC[C@@H]1CN(c2ncnc3ccsc23)C[C@H]1NS(C)(=O)=O | -8.21 |
| CC(Oc1ccc(F)cc1F)C(=O)N1CCC2(CCCO2)CC1 (configuration not stated) | 27 |
| O=C1CCC(C(=O)N2CCOC(Cc3ccc(F)cc3)C2)=NN1 (configuration not stated) | -11.8 |
| O=C(CCn1ccccc1=O)N1CCCC(COc2ccc(F)cc2)C1 (configuration not stated) | -7.1 |
| CC(C)(C)c1ncc(C(=O)NCCNC(=O)c2ccco2)s1 | -6.05 |
| CC(C)c1[nH]c2ncccc2c1CN1CCOCC1 | 4.28 |
| Cc1cc(C)nc(C2CCCN2C(=O)c2cnccn2)n1 (configuration not stated) | -2.97 |
| Cc1cnn(CC2CCCN2Cc2nnc(C(C)C)o2)c1 (configuration not stated) | 23 |
| N#Cc1ccc(N2CCCN(CC(=O)N3CCNC(=O)C3)CC2)cc1 | 3.9 |
| CN(C)C(=O)CN1CCC2(COCc3cnc(-c4cccnc4)nc32)C1 (configuration not stated) | -5.78 |
| CCOc1ccc(CN2CCN(CCOC)[C@@H]3CS(=O)(=O)C[C@@H]32)cc1 | 5.04 |
| O=C(NCc1cc2n(n1)CCCN(Cc1ccc(Cl)s1)C2)C1CCC1 | -10.1 |
| Cc1cc(C(F)(F)F)nn1CCNC(=O)C(C)n1ccnc1C(C)C (configuration not stated) | 10.3 |
| O=C(O)c1ccccc1-n1cc(CN2CCOC(c3cc[nH]n3)C2)cn1 (configuration not stated) | -12.9 |
| CC(C)C(=O)N1CCCC12CCCN(C(=O)c1ccno1)C2 (configuration not stated) | 13.3 |
| CCCN(C(=O)COCC)c1cccc(C)c1 | -4.58 |
| O=C(C1CCN(S(=O)(=O)N2CCCC2)CC1)N1CCC2(CC1)OCCO2 | -7.18 |
| COCCN(Cc1ccc(C)cc1)CC1CCOC1 (configuration not stated) | -5.9 |
| CC(=O)c1cc2ncc(C(=O)NC3CC3)cc2[nH]1 | 16 |
| Cc1n[nH]c(C2CN(CC(=O)NCc3sccc3C)CCO2)n1 (configuration not stated) | -93.4 |
| CN1[C@@H](CCC(=O)NCc2ccc(F)cc2)CNC(=O)[C@H]2NCC[C@H]21 | -2.11 |
| CCC(=O)Nc1ccc2c(c1)C1(CCOCC1)CN2CCF | 16.7 |

| SMILES | cytotoxicity at 70.5 h [%] |
| --- | --- |
| Cc1ccsc1CN(CCCO)Cc1nc2ccccc2[nH]1 | -1.23 |
| CNC(=O)[C@@H](C1CCCCC1)N1CCC[C@H]1C(=O)NC1CC1 | -20.1 |
| Cn1c(-c2ccc(F)cc2)cn2cc(C(=O)N3CC[C@@H](O)C3)nc2c1=O | -10.1 |
| Cc1ccc(C(=O)N2CCCC(n3cncn3)C2)o1 (configuration not stated) | 1.71 |
| CN1C(=O)CC(c2ccccc2)C12CCN(CC1CCOCC1)CC2 (configuration not stated) | -6.6 |
| COc1ccc(CC(C)(O)CNC(=O)c2cccs2)cc1 (configuration not stated) | -15.5 |
| CCc1n[nH]c(C2CN(C(=O)c3ccnc(C)n3)CCO2)n1 (configuration not stated) | 13.5 |
| CCC(C)(COc1ncccc1Cl)NCC(=O)NC1CCCCC1 (configuration not stated) | -14.9 |
| Cn1cc(CCNC(=O)NCc2nnc3n2CCC3)cn1 | -22.4 |
| COCCN1CCN(Cc2ccncc2)[C@H]2CS(=O)(=O)C[C@H]21 | -6.81 |
| COCCN1CCCn2c(nc(CNS(C)(=O)=O)cc2=O)C1 | -6.97 |
| Cc1ccc(N2CC[C@H]3O[C@H](C(=O)NCc4ccco4)CC[C@H]32)nn1 | -18.3 |
| c1ccc(-c2nnc(CNCCn3cccn3)o2)cc1 | -1.94 |
| O=C(CSCC1CC1)N1CCC2(CCCN(C3CCOCC3)C2=O)C1 (configuration not stated) | -6.7 |
| O=C(Nc1nncs1)C1CSCN1C(=O)C1CCCC1 (configuration not stated) | -3.88 |
| CC(C)CN(Cc1nnc(-c2ccco2)o1)CC(C)C | 2.87 |
| COCCN1CCN(S(C)(=O)=O)Cc2ccc(C)nc21 | -2.02 |
| CCc1nc(CSC2CCCN(c3cnn(C)c3)C2=O)cs1 (configuration not stated) | 7.29 |
| O=C(c1noc2c1CCCC2)N1CCCC(c2nccs2)C1 (configuration not stated) | -3.76 |
| CCOc1ccc(Cl)c(C(=O)N2CCCC(N3CCCC3)C2)n1 (configuration not stated) | -2.98 |
| CN(C)C[C@@H]1C[C@@H]2CN(C(=O)c3ccoc3)CC[C@@H]2N1CC1CC1 | 24 |
| Cn1ccc(C(=O)N2CCN(c3cc(C#N)ccn3)CC2)cc1=O | -7.65 |
| O=C1CC(c2ccc(F)cc2)c2cnn(C3CCCC3)c2N1 (configuration not stated) | -7.98 |

| SMILES | cytotoxicity at 70.5 h [%] |
| --- | --- |
| O=C(CCn1nnc2ccccc2c1=O)N(CC1CCOC1)C1CC1 (configuration not stated) | 1.53 |
| CS(=O)(=O)NCc1nnc2n1CCN(Cc1cccs1)C2 | -3.11 |
| Cc1cc(CCC2CN(CC3(O)CCCCC3)CCO2)ncn1 (configuration not stated) | 19.4 |
| COc1ccc(C(=O)N2CCO[C@H]3[C@@H](OCC4CC4)CC[C@@H]32)cc1F | -2.05 |
| CCN(CC)C(=O)Nc1cccc(Oc2ccccn2)c1 | 20.3 |
| CCCc1nnc(N(C)CC2CCN(CC(C)C)CC2)o1 | -7.76 |
| CCOC1CCN(C(=O)NCc2cccc(-n3cccn3)c2)CC1 | -5.08 |
| Cc1ccc2nc(CN(C)Cc3n[nH]c4c3CCCCC4)[nH]c2c1C | -3.25 |
| CN(Cc1cnn(C)c1)C(=O)NCc1cc(Br)cs1 | -2.54 |
| CC(CNC(=O)c1nnn(-c2ccccc2)c1C(F)(F)F)N(C)C (configuration not stated) | -8.59 |
| CCOC(=O)N1CCc2ccccc2C12CCNCC2 | -2.47 |
| CCOc1ccc(Cl)cc1CCNC(=O)Cn1nc(C)ccc1=O | 7.64 |
| CC[C@@H](Cn1ncc2ccccc2c1=O)NC(=O)c1cnc(C)cn1 | -6.57 |
| COc1cccc(OC)c1CNC(Cc1ccsc1)c1ccc(C)cn1 (configuration not stated) | 4.63 |
| C[C@@H]1CN(C(=O)c2cc(Cn3ccc4ccccc43)[nH]n2)C[C@H](C)O1 | 26.1 |
| O=C(COC1CCCC1)NCCc1noc(-c2ccccn2)n1 | -5.96 |
| CCNC(=O)CCc1c(C)nc2cc(O)nn2c1C | -5 |
| Cc1cnn(CC2CN(Cc3nnc(C4CC4)n3C)CCO2)c1 (configuration not stated) | -4.23 |
| c1ncn(CC2CN(CC3CCCC3)CCO2)n1 (configuration not stated) | 0.357 |
| Cc1cccc(N(CC(=O)N2CCCCC2)Cc2ccno2)c1 | -5.71 |
| CC(C#N)NS(=O)(=O)c1ccc2c(c1)N(C)CCC2 (configuration not stated) | -0.913 |
| Cc1n[nH]c(C)c1S(=O)(=O)N(C)Cc1nn(C)c(Cl)c1Cl | 22.3 |
| O=C(Cc1ccc2c(c1)OCCO2)N1CCCC(n2cncn2)C1 (configuration not stated) | -9.12 |

| SMILES | cytotoxicity at 70.5 h [%] |
| --- | --- |
| Cc1cnc(N2CCO[C@@H]3CC(COCc4cccnc4)C[C@H]32)nc1 (some centres not stated) | -0.9 |
| Cc1cc(C)c(CNCC(O)c2ccc(F)c(F)c2)c(C)c1 (configuration not stated) | -11.4 |
| Cc1cccc(C(=O)N2CCn3cc(CNC(=O)CC4CC4)nc3C2)n1 | -4.69 |
| Cn1cccc1C(O)CNC(=O)COc1ccc(Cl)cc1Cl (configuration not stated) | -12 |
| N#CCSCCCN1CCC(C(=O)N2CCCCCC2)CC1 | -5.04 |
| CN(CCO)Cc1nnc(C2CCN(C3CCCCC3)CC2)n1C | -14.7 |
| O=C([C@@H]1COC[C@H]2CN(C3CCCCC3)C[C@H]21)N1CCOCC1 | -9.47 |
| O=C(CN1CCCC1COc1ccccc1)NCc1ccccn1 (configuration not stated) | -10.9 |
| Cn1cccc1C(=O)NCc1cnc2n1CCN(C(=O)N1CCCC1)C2 | -4.52 |
| Cc1ccc(NC(=O)c2cccc(N(C)C)c2)nc1 | -8.66 |
| Cc1ccn(-c2ccnc(N3CCC(N4CCCCC4)CC3)n2)n1 | -13.2 |
| CC(C)S(=O)(=O)N1C[C@@H](c2ccccc2)[C@H]2[C@H]1CCCCCN2C | -5.45 |
| O=C(CCN1CCCO1)NC1CCCN(CC2CCCCC2)C1 (configuration not stated) | -2.41 |
| COCCN1CCN(C(=O)C[C@@H]2C[C@@H](C(C)C)[C@H](CO)C=C2C)CC1 | -3.05 |
| CN1C[C@@H](C(=O)NCC(F)(F)F)[C@@]2(CCc3ccccc3C(=O)N2)C1 | 3.97 |
| Cc1cc(C)c(CNC(=O)N2CCCC2c2cccn2C)c(=O)[nH]1 (configuration not stated) | 5.45 |
| CC(C)Oc1ccc2c(NC(=O)CNC(N)=O)nn(CC(F)(F)F)c2c1 | 3.1 |
| Cc1nc(O)cc(C2CCN(C(=O)c3[nH]nc4c3CC(C)CC4)CC2)n1 (configuration not stated) | -11 |
| O=C1[C@H]2CN(Cc3ccncc3)C[C@H]2CN1c1ccsc1 | -10.1 |
| Cc1c(Br)cccc1C(=O)NCCC1CCCNC1 (configuration not stated) | 12 |
